Consider seven compounds from patent US6413967B1, “Inhibition of novel calcium entry pathway in electrically non-excitable cells acting as an anti-proliferative therapy” (The University of Virginia Patents Foundation, priority 1995, dated 2002).

For orientation: IC50 means the concentration that inhibits the measured activity by half.

The test system of assay [1] is VG Ca^2+ current in Jurkat cells. The assay is described as follows: perforated patch clamp, voltage gated (VG) Ca2+ current. Type of assay: cell-based, human. As to conditions: for effect on the VG Ca^2+ current: amiloride 100 μM, MnCl2 300 μM, NiCl2 1 mM, W-7 alone (unstimulated current). The protocol: (§1) All recordings were performed using the perforated patch method (Horn et al, J. Gen. Physiol. (1988) 92:145) of the gigaseal patch clamp technique (Hammil et al, Pflugers Arch (1981) 391:85) with microelectrodes of 5-10 megohm series resistance. In all solutions for voltage clamp, K^+ was replaced with Cs^+ to block outward K^+ currents (Fox et al, J. Physiol. (Lond.) (1987) 392:149). The bath solution contained (in mM): NaCl, 155; CsCl, 4.5; CaCl2, 2; MgCl2, 1; D-glucose, 5; HEPES, 10 (pH 7.4 with NaOH). The pipette solution contained (in mM): CsCl, 55; Cesium methanesulfonate, 70; CaCl2, 1; MgCl2, 7; HEPES, 10 (pH 7.3 with NaOH). Nystatin was made as a stock solution of 6 mg/100 μl DMSO, and 2 μl of the stock was added to 1 ml of the pipette solution for use. Both pipette and bath solutions were 290-300 mOsm. Experiments were performed on cells at room temperature using the Axopatch-1D patch clamp (Axon Instruments, Foster City, Calif.) after correction of junction potentials and leak subtraction. Records were low-pass filtered at 500 Hz, and the data were collected, stored and analyzed using the pClamp software program (Axon Instruments). For the non-voltage gated current traces, data is presented either as the tracing from a chart recorder or from the digital data in which the current was measured at 5 second intervals and plotted as individual points.
For orientation: The patch-clamp technique gives a direct electrical read-out from membranes.

The test system of assay [2] is NVG current in Jurkat cells. Put plainly: perforated patch clamp, non-voltage gated (NVG) current. The assay is classed as cell-based, human. As to conditions: for effect on the thapsigargin-induced NVG current: membrane potential −60 mV, 300 nM thapsigargin, amiloride 100 μM, MnCl2 300 μM, NiCl2 1 mM, W-7 30 μM, NDGA 10 μM. The protocol:
as §1

Assay [3] deals with Ca^2+ entry pathway in Jurkat cells. Put plainly: thapsigargin-stimulated Ca2+ entry measured with Ca2+-sensitive dyes (indo-1, fluo-3). The assay is classed as cell-based, human. To be noted: 300 nM thapsigargin, amiloride 100 μM (fluo-3), Ni^2+ 1 mM, NDGA 10 μM (indo-1). The protocol: Lymphocytes were suspended in culture medium at 37° C. for 1 h in the presence of 1 μM of the Ca^2+ indicator dye indo-1 /AM. Cells were washed twice in buffer A (140 mM NaCl, 3 mM KCl, 1 mM CaCl2, 1 mM MgCl2, 0.1% D-glucose, 1% FBS, 10 mM HEPES, pH 7.4) and were suspended at a final concentration of 1×10^6 cells/ml in buffer A. The excitation wavelength was 340 nm and emission was monitored at 398 nm in an SLM 8000 spectrofluorometer (SLM/Aminco, Urbana, Ill.), with the temperature maintained at 37° C. Data are plotted as relative fluorescence intensity at 398 nm as a measure of [Ca^2+]i. For FIG. 7, indo-1 emission was monitored at 398 nm and 480 nm and [Ca^2+]i was determined as described previously (Gray et al, J. Immunol (1987) 138:63; Haverstick et al, Mol. Biol. Cell (1993) 4:173).
Jurkat cells were loaded with indo-1/AM as described above. The excitation wavelength was 340 nm and emission was measured at 441 nm. The fluorescence of indo-1 at 441 nm is insensitive to changes in [Ca^2+]i (Sage et al, Biochem. J. (1989) 258:923) and is plotted as relative fluorescence intensity.
Because amiloride interferes with the fluorescence of indo-1 (Wacholtz et al, J. Immunol. (1992) 149:1912), fluo-3 was used to monitor [Ca^2+]i in the presence of amiloride. Jurkat cells were suspended in culture medium at 37° C. for 1 h in the presence of 1 μM fluo-3/AM and 1 mM probenecid to decrease dye leakage (DiVirgilio et al, Methods Cell Biol. (1989) 31:453). After two washes in buffer A, cells were suspended at a concentration of 1×10^6 cells/ml in buffer A with 1 mM probenecid and were maintained in a cuvette at 37° C. The excitation wavelength was 506 nm and the emission was monitored at 526 nm. Data are presented sa relative fluorescence intensity at 526 nm.

Assay [4] has the same test system. As to conditions: previously demonstrated (Haverstick et al 1993); cited from earlier work.
Assay [5] relates to [Ca^2+]i in Jurkat T cells. The assay is described as follows: receptor-stimulated Ca2+ influx in Jurkat T cells (anti-CD3 mAb OKT3). The assay is classed as cell-based, human. As to conditions: Homo sapiens, Jurkat; maximal [Ca^2+]i after anti-CD3 mAb OKT3; drug 1 min prior. The protocol: Initially, all drugs are screened using Jurkat T cells incubated with indo-1/AM as outlined below. In the event that there is an effect of the drug on the maximum [Ca^2+]i reached following treatment of the cells with the anti-CD3 mAb […], the drug is evaluated for any effects on the spectral characteristics of indo-1 as outlined in Haverstick and Gray, Mol. Biol. Cell (1993) 4:173. If there is an effect of the drug on the spectral characteristics of indo-1 , the drug is further examined for spectral effects on the combination of fura-red and fluo-3. If there is no effect of the drug on the fura-red/fluo-3 combination, the drug is examined for effects on the maximum [Ca^2+]i reached following OKT3 treatment of cells incubated with 5 μM fura-red and […] as outlined below.
Jurkat cells are incubated in RPMI-1640 plus 5% fbs in the presence of the acetoxymethyl ester of either indo-1 (1 μM) or the combination of fura-red (5 μM) with fluo-3 (1 μM) for one hour at 37° C. Cells are washed three times in buffer A [[…] 4-(2-hydroxyethyl)-1-piperazine ethanesulfonic acid (HEPES), pH 7.4, 3 MM KCl, 1 mM MgCl2, 1 mM CaCl2, 140 mM NaCl, 0.1% glucose] containing 1% fbs and suspended to a final concentration of 1×10^6/ml. Cells are then placed in the 37° C. jacketed cell holder of the SLM 8000C. Antigen receptor engagement is mimicked by the addition of the anti-CD3 monoclonal antibody OKT3 (Gray et al, J. Exp. Med. (1988) 167:1963; Gray et al, J. Immunol. 142:1631). The effect of drug added prior to receptor stimulation or at the plateau phase of Ca^2+ entry is determined as follows:
Prior drug: 10 or 30 μM drug @ 30 seconds, 1 μg/ml OKT3 at 90 seconds
Post drug: 1 μg/ml OKT3 at 30 second, 10 or 30 μM drug @ 120 seconds

For a further assay, the system named is Jurkat T cells. The assay is described as follows: Jurkat cell proliferation, tetrazolium dye. As to conditions: Homo sapiens, Jurkat; incubation 44 to 48 h; read-out: JURKAT prolif IC50. The assay is classed as cell-based, human. The protocol:
(§2) The effect of various drugs on the proliferation of Jurkat T cells, MDA-468 human breast cancer cells and PC3 human prostate cancer cells was determined by incubating the cells with the indicated concentrations of drug for 48 hours. The number of viable cells remaining at the end of the incubation period was evaluated using the procedure outlined in Example 4.
(§3) Cells are plated in triplicate in a 96-well flat-bottomed plate (Jurkat: 5e4 cells/well in RPMI-1640 plus 5% fbs; MDA468: 2.5e4 per well in DMEM plus 5% fbs and 11 μg/ml insulin) in the absence (control) or presence of drug at 3, 10, 30, and 100 μM. An additional control of 100 μM drug in RPMI-1640 plus 5% fbs or DMEM plus 5% fbs and 11 μg/Ml insulin with no cells is included with each run to control for possible drug interactions with the dye. The plate is then placed in a 5% CO2 37° C. incubator for 44 to 48 hours. 20 μl of dye solution containing a tetrazolium dye (3-(4,5-dimethylthiazol-2-yl)-5-(3-carboxymethoxyphenyl)-2-(4-sulfophenyl)-2H-tetrazolium, Owen's reagent) plus coupling reagent (phenazine methosulfate) is added to each well, the plate is returned to the incubator, and the absorbance at 490 nm is read using an ELISA plate reader 3 to 4 h (Jurkat cells) or 2 to 3 h (MDA-468 cells) later. All data are presented as percent of control (no drug addition). With this protocol, it is possible to determine the effect of 5 drugs at 4 concentrations in a single 96-well plate as outlined below: […]

Assay [6] relates to [Ca^2+]i in MDA-468 cells. The assay is described as follows: EGF receptor-stimulated Ca2+ influx in MDA-468 cells. To be noted: Homo sapiens; maximal [Ca^2+]i, Ca^2+ entry triggered by 50 ng/ml EGF. The assay is classed as cell-based.
The subject of assay [7] is MDA-468 human breast cancer cells. Put plainly: MDA-468 cell proliferation, tetrazolium dye. The assay is classed as cell-based. To be noted: Homo sapiens; incubation 44 to 48 h; read-out: MDA-468 prolif IC50. The protocol:
as §2, §3

For assay [8], the system named is human prostate cancer cell line PC3. Put plainly: PC3 cell proliferation, tetrazolium dye. Type of assay: cell-based. As to conditions: PC-3, 5×10^4 PC3 cells, 48 hours.

As for `[Cl][Mn][Cl]` [MnCl2], the “increase of the VG Ca^2+ current” value in assay [1] (0.3 mM Mn^2+ in medium containing 2 mM Ca^2+) is listed as “about 10%”. Further, the “effect on the VG Ca^2+ current” value in assay [1] is listed as “not blocked”. Besides, the “effect on the thapsigargin-induced NVG current” value in [2] is “reversibly blocked”.
For `[Cl][Ni][Cl]` [Ni^2+, NiCl2], in assay [3], the “effect on thapsigargin-stimulated Ca^2+ entry” value is listed as “blocked Ca^2+ entry”. Also, the “effect on the VG Ca^2+ current” value in assay [1] is on record as “eliminated the VG Ca^2+ current”. The “effect on the thapsigargin-induced NVG current” value in assay [2] is listed as “blocked”.
As to `NCCCCCCNS(=O)(=O)c1cccc2c(Cl)cccc12` [W-7, N-(6-aminohexyl)-5-chloro-1-naphthalenesulfonamide], the “effect on the VG Ca^2+ current” value in assay [1] is “not affected”. In assay [1] (drug added before 300 nM thapsigargin, W-7 30 μM), the “effect on thapsigargin-mediated augmentation of the VG Ca^2+ current” value was “blocked the augmentation”. In addition, the “effect on the thapsigargin-induced NVG current” value in [2] was “not affected”. Further, in [4], the “effect on Ca^2+ influx induced by thapsigargin, by Ca^2+-sensitive dyes” value was “eliminates”.
Consider `N=C(N)NC(=O)c1nc(Cl)c(N)nc1N` [amiloride], for which, in assay [3], the “effect on thapsigargin-stimulated Ca^2+ entry” value is given as “no effect”. For the same compound, the “effect on the VG Ca^2+ current” value in assay [1] is “not blocked”. For the same compound, the “effect on the thapsigargin-induced NVG current” value is recorded as “virtually eliminated” in assay [2] and “completely inhibited” in [2] (listed as Amiloride).
Consider `CN(C)CCCN1c2ccccc2Sc2ccc(Cl)cc21` [chloropromazine, 2-chloro-10-[3-dimethylaminopropyl]-phenothiazine], for which the IC50 came to 25 µM in [5], 90 µM in the assay with Jurkat T cells, 5 µM in assay [6] and 20 µM in assay [7].
For `CC(CN1c2ccccc2Sc2ccccc21)N(C)C` (stereo not drawn) [promethazine, N,N,α-trimethyl-10H -phenothiazine-10-ethanamine], the IC50 in [5] was 65 µM; in [8] it was ~40 µM; in the assay on Jurkat T cells, 3.5 µM; in assay [6] it was 105 µM; in assay [7], 30 µM.
`C/C=C(/C)C(=O)O[C@H]1C(C)=C2[C@H]([C@@H]1OC(=O)CCCCCCC)[C@@](C)(OC(C)=O)C[C@H](OC(=O)CCC)[C@@]1(O)[C@H]2OC(=O)[C@@]1(C)O` [thapsigargin]: the “mean maximum VG Ca^2+ current following addition” value in assay [1] (300 nM thapsigargin, n=10, unstimulated 18.7 pA) is 30.6 pA. For the same compound, the “mean maximum magnitude of the induced NVG current” value in [2] (imposed membrane potential −60 mV, n=38) is reported as 3.6 pA.
